Columns and labels:
[1] = target: glucose dehydrogenase/NAD system (Bacillus subtilis, UniProt P12310); experiment: Photometric glucose determination with test elements containing GlucDH, NAD, mediator and 2,18-phosphomolybdic acid; details: glucose in the region of 800 mg/dl; test elements stored 11 weeks at room temperature
Protocol: Various test systems which each contained glucose dehydrogenase, NAD, a mediator and, where appropriate, an optical indicator, were measured photometrically and electrochemically in order to determine glucose.
For photometric measurements four test elements which had each been stored for 11 weeks at room temperature and contained 2,18-phosphomolybdic acid in addition to glucose dehydrogenase, NAD and a mediator, were initially investigated at various glucose concentrations.
The kinetics of the conversion of glucose using the system glucose dehydrogenase, NAD, 1-(3-carboxypropoxy)-5-ethylphenazinium-trifluoromethane sulfonate and 2,18-phosphomolybdic acid at glucose concentrations in the range from 0 to 800 mg/dl is shown in FIG. 14.

[2] = target: T1, alcohol dehydrogenase (ADH) (Saccharomyces cerevisiae, UniProt P00330); experiment: Storage of alcohol dehydrogenase detection solution with NAD or cNAD (Tables 1 and 2); format: biochemical, yeast; details: 16 mmol/l coenzyme
T1 sequence (P00330 1-348): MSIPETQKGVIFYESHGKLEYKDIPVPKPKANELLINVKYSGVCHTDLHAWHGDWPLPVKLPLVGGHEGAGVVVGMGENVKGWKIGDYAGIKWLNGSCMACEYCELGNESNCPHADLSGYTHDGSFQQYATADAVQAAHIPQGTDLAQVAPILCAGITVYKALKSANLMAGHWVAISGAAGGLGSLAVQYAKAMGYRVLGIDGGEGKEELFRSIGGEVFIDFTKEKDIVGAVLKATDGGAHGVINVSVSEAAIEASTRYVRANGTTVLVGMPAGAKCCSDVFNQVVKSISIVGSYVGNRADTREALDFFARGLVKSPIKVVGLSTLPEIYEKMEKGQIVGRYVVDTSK
Protocol: (§1) cNAD or NAD was added to a detection solution containing alcohol dehydrogenase. These mixtures were stored at 2-8° C. and at 35° C. Subsequently, the stability of alcohol dehydrogenase (ADH) was checked at regular intervals and the residual activity of the enzyme was determined.
If alcohol dehydrogenase is stored together with native NAD or with cNAD for several months at 2-8° C. in a refrigerator, then one observes in the case of […] a considerable decrease in enzyme activity over the entire storage period. Whereas the difference after 2 weeks storage is still slight, there is an approximately 20% higher residual activity of alcohol dehydrogenase after 12 months storage in the presence of 16 mM cNAD compared to a corresponding solution containing 16 mM NAD as the coenzyme.
Accordingly, the residual activity of alcohol dehydrogenase can be increased somewhat in samples that have been stored for 2 weeks at 2-8° C. by increasing the concentration of cNAD.

[3] = target: T1, alcohol dehydrogenase (ADH); experiment: Stability of alcohol dehydrogenase with coenzyme in a liquid phase at 35° C.; format: biochemical, yeast; details: 65 hours at 35° C., 5 mg/ml ADH, 50 mg/ml coenzyme, pH 9.0
Protocol: FIG. 12 is a graphical illustration of the stability of alcohol dehydrogenase from yeast in the presence of NAD or cNAD in a liquid phase at 35° C. for a period of 65 hours with test conditions of 5 mg/ml ADH; 50 mg/ml NAD or cNAD; buffer: 75 mM Na4P2O7; glycine, pH 9.0; temperature 35° C.
as §1
The residual activity of alcohol dehydrogenase in the presence of the native coenzyme NAD is at about 6% after 65 hours at 35° C., whereas the residual activity of the enzyme in the presence of the artificial coenzyme cNAD is still at about 60%.

[4] = target: glucose dehydrogenase (GlucDH) (Bacillus subtilis, UniProt P12310); experiment: Stability of glucose dehydrogenase with coenzyme in a liquid phase at 50° C.; format: biochemical; details: 10 mg/ml GlucDH, 12 mg/ml coenzyme, pH 8.5
Chain of glucose dehydrogenase (GlucDH) (P12310 whole entry): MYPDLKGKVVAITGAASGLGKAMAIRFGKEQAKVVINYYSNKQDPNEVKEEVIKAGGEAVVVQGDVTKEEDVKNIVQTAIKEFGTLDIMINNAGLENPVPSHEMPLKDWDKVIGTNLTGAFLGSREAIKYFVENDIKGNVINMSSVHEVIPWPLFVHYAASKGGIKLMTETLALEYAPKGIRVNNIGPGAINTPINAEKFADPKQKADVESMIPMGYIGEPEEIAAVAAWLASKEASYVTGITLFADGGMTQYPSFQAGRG
Protocol: FIGS. 9A and 9B are graphical illustrations of the stability of glucose dehydrogenase in the presence of NAD or cNAD in a liquid phase at 50° C. for a period of 4 days (FIG. 9A) or 14 days (FIG. 9B) with test conditions of 10 mg/ml GlucDH; 12 mg/ml NAD or cNAD; buffer: 0.1 M Tris, 1.2 M NaCl, pH 8.5; temperature 50° C.
After 95 hours at 50° C. the residual activity of glucose dehydrogenase in the presence of the native coenzyme NAD is […], whereas the residual activity of GlucDH in the presence of the artificial coenzyme cNAD is 75% (FIG. 9A). After 336 hours storage at 50° C. the residual activity of the enzyme stabilized with NAD is now only about 1%; a residual activity of still about 70% is observed for the enzyme stored in the presence of cNAD. The corresponding SDS gels also show a change in the GlucDH bands in the presence of the native coenzyme NAD: new bands are seen at higher molar masses and there is a shift in the 30 kDa band.

[5] = target: Glucose dehydrogenase mutant2 (Bacillus subtilis, UniProt P12310, A229V/A236S/E170K/Q252L); experiment: Differential scanning calorimetry (DSC) of coenzyme binding; details: Tris buffer, pH 8.0; versus absence of NAD (79.1° C.)
Chain of Glucose dehydrogenase mutant2 (P12310 whole entry E170K/A229V/A236S/Q252L): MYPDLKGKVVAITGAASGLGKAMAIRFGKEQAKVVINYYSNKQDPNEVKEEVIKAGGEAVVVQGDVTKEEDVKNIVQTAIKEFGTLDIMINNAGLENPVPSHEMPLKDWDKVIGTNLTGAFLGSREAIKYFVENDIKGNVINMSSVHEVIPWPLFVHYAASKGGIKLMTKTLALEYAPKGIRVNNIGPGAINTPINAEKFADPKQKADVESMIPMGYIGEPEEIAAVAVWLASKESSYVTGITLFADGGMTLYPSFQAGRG

Chain of glucose dehydrogenase/NAD system (P12310 whole entry): as the sequence (P12310 whole entry) above

| SMILES | reflectance of the measured sample [1] | ADH activity after 2 weeks at 2-8° C. ([2]; 2 weeks at 2-8° C.) | ADH activity after 3 months at 2-8° C. ([2]; 3 months at 2-8° C.) | ADH activity after 7.5 months at 2-8° C. ([2]; 7.5 months at 2-8° C.) | ADH activity after 10 months at 2-8° C. ([2]; 10 months at 2-8° C.) | ADH activity after 12 months at 2-8° C. ([2]; 12 months at 2-8° C.) | ADH activity % of weighed amount (initial value) ([2]; initial value) | residual activity of alcohol dehydrogenase [3] | residual activity of glucose dehydrogenase ([4]; 95 hours at 50° C.) [%] | residual activity of glucose dehydrogenase ([4]; 336 hours at 50° C.) | TM shift on binding of ligand [5] |
| --- | --- | --- | --- | --- | --- | --- | --- | --- | --- | --- | --- |
| CC[n+]1c2ccccc2nc2c(OCCCC(=O)O)cccc21.O=S(=O)([O-])C(F)(F)F [1-(3-carboxy-propoxy)-5-ethylphenazinium-trifluoromethane sulfonate] | about 20% | – | – | – | – | – | – | – | – | – | – |
| NC(=O)c1ccc[n+]([C@@H]2O[C@H](COP(=O)([O-])OP(=O)(O)OC[C@H]3O[C@@H](n4cnc5c(N)ncnc54)[C@H](O)[C@@H]3O)[C@@H](O)[C@H]2O)c1 [NAD, nicotinamide adenine dinucleotide, reference compound] | – | 96.9 % of initial value | 92.1 % of initial value | 80.2 % of initial value | 70.3 % of initial value | 60.5 % of initial value | 85.2 % of weighed amount | about 6% | > 5 | about 1% | more than 1.5 °C |
| Cl.O=Nc1ccc(N(CO)CO)cc1 [[(4-nitroso-phenyl)imino]dimethanol hydrochloride] | about 20% | – | – | – | – | – | – | – | – | – | – |
